Measurements published in ChEMBL document CHEMBL1137842, “Fluorinated dihydroquinolines as potent n-NOS inhibitors” (Bioorg Med Chem Lett, 2004).

Assays:
[1] = molecular target: T1, Nitric oxide synthase 3 (Homo sapiens, UniProt P29474); assay: Inhibition of human endothelial nitric oxide synthase
T1 sequence (P29474 whole entry): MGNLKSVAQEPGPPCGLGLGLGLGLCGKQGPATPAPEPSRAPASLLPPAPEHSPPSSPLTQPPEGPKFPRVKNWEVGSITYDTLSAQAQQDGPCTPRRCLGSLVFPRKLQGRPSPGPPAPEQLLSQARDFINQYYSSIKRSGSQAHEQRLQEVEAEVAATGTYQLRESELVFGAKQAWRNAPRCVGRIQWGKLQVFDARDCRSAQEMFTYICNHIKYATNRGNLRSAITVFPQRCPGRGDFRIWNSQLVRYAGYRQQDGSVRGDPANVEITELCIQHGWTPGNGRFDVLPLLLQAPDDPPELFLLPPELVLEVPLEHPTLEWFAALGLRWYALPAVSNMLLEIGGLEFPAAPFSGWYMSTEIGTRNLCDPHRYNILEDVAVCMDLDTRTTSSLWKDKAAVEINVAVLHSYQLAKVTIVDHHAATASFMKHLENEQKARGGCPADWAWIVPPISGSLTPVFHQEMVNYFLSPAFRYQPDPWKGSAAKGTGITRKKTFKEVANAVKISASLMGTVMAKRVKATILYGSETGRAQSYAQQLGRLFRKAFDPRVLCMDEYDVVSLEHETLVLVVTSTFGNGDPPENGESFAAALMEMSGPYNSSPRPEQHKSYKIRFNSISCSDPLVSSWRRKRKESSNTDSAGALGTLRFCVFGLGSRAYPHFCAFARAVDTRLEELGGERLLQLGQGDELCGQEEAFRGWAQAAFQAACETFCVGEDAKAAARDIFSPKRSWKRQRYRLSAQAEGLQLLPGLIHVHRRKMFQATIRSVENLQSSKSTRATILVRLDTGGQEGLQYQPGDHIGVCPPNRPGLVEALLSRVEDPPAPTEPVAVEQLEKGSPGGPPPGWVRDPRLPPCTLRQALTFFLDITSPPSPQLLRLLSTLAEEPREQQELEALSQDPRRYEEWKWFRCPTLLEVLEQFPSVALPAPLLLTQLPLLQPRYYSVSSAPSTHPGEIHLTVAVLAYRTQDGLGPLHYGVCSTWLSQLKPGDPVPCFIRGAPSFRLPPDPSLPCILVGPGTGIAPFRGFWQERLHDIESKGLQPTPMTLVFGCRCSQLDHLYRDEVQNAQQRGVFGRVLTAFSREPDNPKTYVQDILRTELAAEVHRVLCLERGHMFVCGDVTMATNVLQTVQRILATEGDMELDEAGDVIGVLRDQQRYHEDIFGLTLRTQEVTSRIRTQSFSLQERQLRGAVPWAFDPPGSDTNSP

[2] = molecular target: Nitric oxide synthase, inducible (Homo sapiens, UniProt P35228); assay: Inhibition of human inducible nitric oxide synthase
Sequence of Nitric oxide synthase, inducible (P35228 whole entry): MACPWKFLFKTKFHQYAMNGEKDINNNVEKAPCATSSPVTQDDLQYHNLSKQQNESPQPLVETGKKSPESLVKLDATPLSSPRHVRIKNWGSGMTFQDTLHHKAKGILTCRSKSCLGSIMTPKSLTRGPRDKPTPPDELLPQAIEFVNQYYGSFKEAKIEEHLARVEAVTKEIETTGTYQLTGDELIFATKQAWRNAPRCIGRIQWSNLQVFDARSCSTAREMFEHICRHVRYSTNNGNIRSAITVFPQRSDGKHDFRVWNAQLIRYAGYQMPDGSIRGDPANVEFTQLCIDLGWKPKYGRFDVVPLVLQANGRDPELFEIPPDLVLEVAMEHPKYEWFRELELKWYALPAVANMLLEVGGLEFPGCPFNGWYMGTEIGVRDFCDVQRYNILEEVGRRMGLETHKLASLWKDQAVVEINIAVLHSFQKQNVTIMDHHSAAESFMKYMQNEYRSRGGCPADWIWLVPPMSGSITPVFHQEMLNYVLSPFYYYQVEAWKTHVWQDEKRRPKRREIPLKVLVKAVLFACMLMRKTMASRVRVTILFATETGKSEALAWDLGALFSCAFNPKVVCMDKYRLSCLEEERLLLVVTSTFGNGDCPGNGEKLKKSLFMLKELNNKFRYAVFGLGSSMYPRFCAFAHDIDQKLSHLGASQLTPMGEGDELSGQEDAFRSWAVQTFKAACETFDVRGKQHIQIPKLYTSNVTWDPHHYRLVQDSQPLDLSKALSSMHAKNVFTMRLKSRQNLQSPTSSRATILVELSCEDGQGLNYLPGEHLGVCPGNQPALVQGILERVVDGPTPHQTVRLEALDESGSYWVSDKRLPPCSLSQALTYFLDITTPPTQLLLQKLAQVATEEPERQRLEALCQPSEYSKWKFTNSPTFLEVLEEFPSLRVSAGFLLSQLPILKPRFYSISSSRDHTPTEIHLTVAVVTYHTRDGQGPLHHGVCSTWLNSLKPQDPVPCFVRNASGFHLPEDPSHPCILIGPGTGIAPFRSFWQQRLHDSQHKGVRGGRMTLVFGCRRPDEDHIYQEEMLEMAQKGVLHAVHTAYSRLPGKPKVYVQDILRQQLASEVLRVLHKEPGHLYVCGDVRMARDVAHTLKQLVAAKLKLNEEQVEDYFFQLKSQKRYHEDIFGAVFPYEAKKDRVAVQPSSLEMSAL

[3] = pKa value by photometric titration; type: physicochemical
[4] = molecular target: Nitric oxide synthase 1 (Homo sapiens, UniProt P29475); assay: Inhibition of human neuronal nitric oxide synthase
Sequence of Nitric oxide synthase 1 (P29475 whole entry): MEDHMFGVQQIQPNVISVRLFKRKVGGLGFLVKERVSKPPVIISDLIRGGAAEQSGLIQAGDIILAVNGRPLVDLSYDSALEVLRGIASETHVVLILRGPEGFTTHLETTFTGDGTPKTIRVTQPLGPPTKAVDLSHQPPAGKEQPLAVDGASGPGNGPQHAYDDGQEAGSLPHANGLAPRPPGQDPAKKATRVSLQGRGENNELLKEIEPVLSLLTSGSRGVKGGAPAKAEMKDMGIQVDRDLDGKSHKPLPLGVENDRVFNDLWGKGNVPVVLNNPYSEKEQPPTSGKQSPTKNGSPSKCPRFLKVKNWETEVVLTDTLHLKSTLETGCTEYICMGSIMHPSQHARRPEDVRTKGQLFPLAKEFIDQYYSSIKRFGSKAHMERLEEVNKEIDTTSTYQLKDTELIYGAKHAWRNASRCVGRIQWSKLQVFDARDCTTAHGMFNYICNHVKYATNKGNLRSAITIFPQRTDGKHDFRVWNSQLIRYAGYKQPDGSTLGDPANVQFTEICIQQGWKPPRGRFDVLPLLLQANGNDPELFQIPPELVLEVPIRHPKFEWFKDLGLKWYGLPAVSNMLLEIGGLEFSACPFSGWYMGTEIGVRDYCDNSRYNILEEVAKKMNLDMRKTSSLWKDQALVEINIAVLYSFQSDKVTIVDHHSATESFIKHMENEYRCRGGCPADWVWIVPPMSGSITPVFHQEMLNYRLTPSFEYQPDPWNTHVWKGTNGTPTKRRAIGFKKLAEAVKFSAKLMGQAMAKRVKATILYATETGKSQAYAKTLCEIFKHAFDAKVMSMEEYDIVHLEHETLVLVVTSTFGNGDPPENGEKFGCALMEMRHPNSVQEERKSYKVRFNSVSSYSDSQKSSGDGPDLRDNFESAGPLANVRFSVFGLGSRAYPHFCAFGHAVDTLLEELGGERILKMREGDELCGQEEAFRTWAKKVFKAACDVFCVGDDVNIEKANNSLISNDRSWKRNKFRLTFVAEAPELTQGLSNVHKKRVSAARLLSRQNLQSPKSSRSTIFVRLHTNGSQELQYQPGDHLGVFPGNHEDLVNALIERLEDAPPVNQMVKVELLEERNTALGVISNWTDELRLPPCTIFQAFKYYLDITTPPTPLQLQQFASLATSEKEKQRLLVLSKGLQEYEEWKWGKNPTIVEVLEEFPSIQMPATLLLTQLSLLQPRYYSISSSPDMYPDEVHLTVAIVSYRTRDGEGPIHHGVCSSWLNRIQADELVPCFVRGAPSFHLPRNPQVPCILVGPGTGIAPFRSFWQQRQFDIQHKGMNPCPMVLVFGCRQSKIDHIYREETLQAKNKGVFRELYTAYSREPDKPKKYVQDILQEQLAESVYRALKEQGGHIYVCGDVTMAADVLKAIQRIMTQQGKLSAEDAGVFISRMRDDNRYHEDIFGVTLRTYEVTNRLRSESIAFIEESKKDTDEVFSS

Compound | IC50 [1] [nM] | IC50 [2] [nM] | pKa [3] | IC50 [4] [nM]
NC1=Nc2cc(CCCNCc3cccc(Cl)c3)ccc2[C@H]2CCC[C@@]12F | 38000 | 2200 | 8 | 310
CNCCc1ccc2c(c1)N=C(N)[C@]1(F)CCC[C@H]21 | 79000 | 1900 | 7.9 | 390
NC1=Nc2ccc(Cl)cc2[C@H]2CCC[C@@]12F | 14000 | 8100 | 7.6 | 290
NC1=Nc2ccc(Cl)cc2[C@H]2CCC[C@@H]12 | – | – | 9.4 | –
NC1=Nc2c(F)cc(Cl)cc2[C@H]2CCC[C@@H]12 | 14000 | 8100 | 8.2 | 290
NC1=Nc2c(F)cccc2[C@H]2CCC[C@@H]12 | – | – | 8.5 | –
NC1=Nc2ccccc2[C@H]2CCC[C@@]12F | 2700 | 2100 | 7.9 | 100
NC1=Nc2ccccc2[C@H]2CCC[C@@H]12 | – | – | 9.7 | –

Results, then the compound that gave them:

IC50 [1] [nM] | IC50 [2] [nM] | pKa [3] | IC50 [4] [nM] | Compound
– | – | 9.9 | – | NC1=Nc2cc(CCCNCc3cccc(Cl)c3)ccc2[C@H]2CCC[C@@H]12
22000 | 25000 | 6.6 | 590 | NC1=Nc2c(F)cccc2[C@H]2CCC[C@@]12F
66000 | 1400 | – | 660 | CNCc1ccc2c(c1)N=C(N)[C@]1(F)CCC[C@H]21
– | – | 8 | – | NC1=Nc2c(ccc(F)c2F)[C@H]2CCC[C@@H]12
